Reference: article PMC3842914, “Meleagrin, a New FabI Inhibitor from Penicillium chryosogenum with at Least One Additional Mode of Action” (PLoS ONE, 2013)
In brackets after ≈: the same amount, converted by molar mass. Read-outs that look alike come from different tables or passages of the source.

Columns and labels:
S. aureus FabI = target: T1, S. aureus FabI (Staphylococcus aureus, UniProt Q6GI75); experiment: S. aureus FabI enzyme assay (NADPH use at 340 nm, t-o-NAC thioester substrate); assay type: biochemical
T1 construct: made in house
T1 sequence (Q6GI75 1-256): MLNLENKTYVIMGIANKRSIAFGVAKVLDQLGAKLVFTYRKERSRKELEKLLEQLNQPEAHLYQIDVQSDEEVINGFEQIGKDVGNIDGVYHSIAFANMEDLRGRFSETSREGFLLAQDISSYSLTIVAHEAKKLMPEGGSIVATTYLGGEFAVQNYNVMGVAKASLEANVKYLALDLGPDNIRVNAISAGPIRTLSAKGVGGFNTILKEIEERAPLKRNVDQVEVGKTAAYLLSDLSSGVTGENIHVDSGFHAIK
From the text: (§1) S. aureus FabI and E. coli FabI enzymes were cloned, overexpressed, and purified as described previously. The wild-type fabK gene was amplified by PCR from genomic DNA obtained from Streptococcus pneumoniae KCTC 5412 by using the primers 5′-[…]-3′ and 5′-[…]-3′, which contained NdeI and XhoI restriction sites, respectively. After the DNA sequence was confirmed, the gene was cloned into the pET22b vector (Novagen, Gibbstown, NJ, USA). The construct was transformed into E. coli BL21 (DE3) for expression following induction with isopropylthiogalactoside. The C-terminal His-tagged protein was purified as described previously. Assays were conducted in half-area, 96-well microtiter plates. The compounds were dissolved in DMSO and evaluated in 100-μL assay mixtures containing components specific for each enzyme (see below). Reduction of the trans-2-octenoyl N-acetylcysteamine (t-o-NAC thioester) substrate analog was measured spectrophotometrically following the utilization of NADH or NADPH at 340 nm at 30°C for the linear period of the assay. S. aureus FabI assays contained 50 mM sodium acetate (pH 6.5), 200 μM t-o-NAC thioester, 200 μM NADPH, and 150 nM S. aureus FabI.
(§2) NADH was used as a cofactor rather than NADPH for the E. coli FabI assay. Substrate concentrations used for the Lineweaver–Burk plot were 100, 200, 300, and 400 μM, whereas the concentrations of the cofactor were 100, 200, 400, and 600 μM. The rate of decrease in the amount of NADPH in each reaction was measured with a microtiter enzyme-linked immunosorbent assay (ELISA) reader by using the SOFTmax PRO software (Molecular Devices, Sunnyvale, CA, USA). The inhibitory activity was calculated according to the following formula: % of inhibition = 100× [1− (rate in the presence of compound/rate in the untreated control)]. IC50 values were calculated by fitting the data to a sigmoid equation. An equal volume of DMSO solvent was used for the untreated control. FabK assays contained 100 mM sodium acetate (pH 6.5), 2% glycerol, 200 mM NH4Cl, 50 µM t-o-NAC thioester, 200 µM NADH, and 150 nM S. pneumoniae FabK.

E. coli FabI = target: T2, E. coli FabI (Escherichia coli, UniProt P0AEK4); experiment: E. coli FabI enzyme assay (NADH as cofactor); assay type: biochemical
T2 construct: made in house
From the text: as §1, §2

S. aureus RN4220 = experiment: MIC by broth microdilution, S. aureus RN4220 (wild type); assay type: cell-based, Staphylococcus aureus; conditions: for MIC: Staphylococcus aureus, S. aureus RN4220 (wild type); for Antibacterial activity relative to compound 1: against S. aureus RN4220 and E. coli KCTC 1924
Method: (§3) Whole-cell antimicrobial activity was determined by broth microdilution as described previously. The test strains except for S. pneumoniae were grown to mid-log phase in Mueller–Hinton broth and diluted 1,000-fold in the same medium. Cells (10^5/mL) were inoculated into Mueller–Hinton broth and dispensed at 0.2 mL/well into a 96-well microtiter plate. S. pneumoniae was grown in tryptic soy broth supplemented with 5% sheep blood. MICs were determined in triplicate by serial 2-fold dilutions of test compounds. […] Bacterial growth was determined by measuring the absorption at 650 nm by using a microtiter ELISA reader.

E. coli KCTC 1924 = experiment: MIC by broth microdilution, E. coli KCTC 1924; assay type: cell-based; conditions: Escherichia coli
Method: as §3

S. aureus RN4220 (pE194) = experiment: Overexpression assay, MIC for vector-containing S. aureus RN4220 (pE194); assay type: cell-based; conditions: Staphylococcus aureus, read-out: MIC S. aureus (pE194)
Method: as §3
(§4) An overexpression assay using S. aureus RN4220, S. aureus RN4220 (pE194), and S. aureus RN4220 (pE194-fabI) was conducted to perform target validation of FabI inhibitors as described previously. Additionally, both fabI- and fabK-overexpressing E. coli were constructed to test a multitarget effect of the compounds. The wild-type fabI gene from the genomic DNA of E. coli W3110 was amplified by PCR by using the primers 5′-[…]-3′ and 5′-[…]-3′. The wild-type fabK gene from the genomic DNA of S. pneumoniae KCTC 5412 was amplified by PCR by using the primers 5′-[…]-3′ and 5′-[…] […]-3′. The resulting products were cloned into the pBAD-TOPO TA expression vector (Invitrogen, Carlsbad, CA, USA) to yield the pBAD-fabI and pBAD-fabK recombinant plasmids, which placed the expression of the genes fabI and fabK, respectively, under the control of the arabinose promoter. Recombinant pBAD-fabI and pBAD-fabK were then introduced into the pump-negative (tolC) E. coli EW1b via electroporation to generate E. coli EW1b (pBAD-fabI) and E. coli EW1b (pBAD-fabK), respectively.

[1] = test system: S. aureus RN4220 (pE194-fabI); experiment: Overexpression assay, MIC for fabI-overexpressing S. aureus RN4220 (pE194-fabI); assay type: cell-based; conditions: Staphylococcus aureus, read-out: MIC S. aureus (pE194-fabI)
Method: as §3, §4

[2] = with respect to trans-2-octenoyl N-acetylcysteamine
[3] = KCTC1924, read-out: MIC E. coli
[4] = KCTC1924, E. coli KCTC 1924, read-out: MIC E. coli
[5] = S. aureus FabI, read-out: IC50 saFabI

T2 sequence (P0AEK4 whole entry): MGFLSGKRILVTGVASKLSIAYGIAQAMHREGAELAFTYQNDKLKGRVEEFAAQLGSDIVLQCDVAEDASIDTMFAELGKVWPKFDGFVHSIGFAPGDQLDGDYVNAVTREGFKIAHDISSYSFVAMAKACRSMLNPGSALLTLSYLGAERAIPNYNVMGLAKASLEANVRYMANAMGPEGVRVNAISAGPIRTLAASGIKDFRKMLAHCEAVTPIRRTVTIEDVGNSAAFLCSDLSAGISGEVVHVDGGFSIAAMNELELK

Row | Compound | IC50 (S. aureus FabI) [µM] | Ki (S. aureus FabI; with respect to NADPH) [µM] | Ki (S. aureus FabI; [2]) [µM] | Mode of FabI inhibition (S. aureus FabI; with respect to NADPH) | Mode of FabI inhibition (S. aureus FabI; [2]) | IC50 (E. coli FabI) [µM] | MIC (S. aureus RN4220) [µg/mL] | MIC (E. coli KCTC 1924; [3]) [µg/mL] | MIC (S. aureus RN4220 (pE194)) [µg/mL] | MIC [1] [µg/mL] | MIC (E. coli KCTC 1924; [4]) [µg/mL] | IC50 (S. aureus FabI; [5]) [µM] | Antibacterial activity relative to compound 1 (S. aureus RN4220) | MIC (E. coli KCTC 1924; KCTC1924, 24 h, read-out: MIC E. coli) [µg/mL]
1 | C=CC(C)(C)C12C=C(O)C(=O)N3/C(=C/c4cnc[nH]4)C(=O)NC31N(OC)c1ccccc12 (stereo not drawn) [Compound 1, meleagrin] | 40.1 | 32.3 | 39.8 | mixed inhibition | mixed | 33.2 | 64 (≈ 148 µM) | 32 (≈ 73.8 µM) | 64 (≈ 148 µM) | 256 (≈ 591 µM) | – | – | – | –
2 | C=CC(C)(C)C12C=C(OC)C(=O)N3/C(=C/c4cnc[nH]4)C(=O)NC31N(OC)c1ccccc12 (stereo not drawn) [Compound 3, oxaline] | 38.7 | – | – | – | – | 38.8 | 64 (≈ 143 µM) | – | 64 (≈ 143 µM) | 256 (≈ 572 µM) | 32 (≈ 71.5 µM) | – | – | –
3 | C=CC(C)(C)C12C=C(O)C(=O)N3/C(=C/c4cnc[nH]4)C(=O)N(C)C31N(OC)c1ccccc12 (stereo not drawn) [Compound 4, N^14-methylmeleagrin] | 48 | – | – | – | – | 33.1 | 64 (≈ 143 µM) | 32 (≈ 71.5 µM) | 64 (≈ 143 µM) | 256 (≈ 572 µM) | – | – | – | –
4 | C=CC(C)(C)C12C=C(OC)C(=O)N3/C(=C/c4cnc[nH]4)C(=O)N(C)C31N(OC)c1ccccc12 (stereo not drawn) [Compound 5, O,N^14-dimethylmeleagrin] | – | – | – | – | – | 15.6 | 16 (≈ 34.7 µM) | – | 16 (≈ 34.7 µM) | 128 (≈ 277 µM) | 8 (≈ 17.3 µM) | 13.5 | 2–4 times | –
5 | C=CC(C)(C)C12C=C(OC)C(=O)N3/C(=C/c4cnc[nH]4)C(=O)N(C)C31Nc1ccccc12 (stereo not drawn) [Compound 6, O,N^14-dimethylglandicolin] | 13.1 | – | – | – | – | 15.4 | 16 (≈ 37.1 µM) | 8 (≈ 18.5 µM) | 16 (≈ 37.1 µM) | 128 (≈ 297 µM) | – | – | 2–4 times | –
6 | C=CC(C)(C)C12C=C(O)C(=O)N3/C(=C/c4cnc[nH]4)C(=O)NC31Nc1c(Br)cccc12 (stereo not drawn) [Compound 7] | – | – | – | – | – | > 200 | > 128 | – | – | – | > 128 | > 200 | – | –
7 | Oc1cc(Cl)ccc1Oc1ccc(Cl)cc1Cl [Triclosan, reference compound] | – | – | – | – | – | – | 0.01 (≈ 0.0345 µM) | 0.01 (≈ 0.0345 µM) | 0.01 (≈ 0.0345 µM) | 1.6 (≈ 5.53 µM) | – | – | – | 0.02 (≈ 0.0691 µM)
